In publication PMC5218480 (PLoS ONE, 2017):

Test system: MV-4-11 cells
Assay: Gene expression microarray analysis (Affymetrix PrimeView) and GSEA
Type: cell-based, human
Parameters: RFU PODN (11730768_x_at) / Fold change /veh PODN (11730768_x_at) / RFU LINC00158 (11744669_a_at) / Fold change /veh LINC00158 (11744669_a_at) / RFU DUSP10 (11751237_a_at) / Fold change /veh DUSP10 (11751237_a_at) / RFU ID3 (11757404_x_at) / Fold change /veh ID3 (11757404_x_at) / RFU PLEKHG5 (11737974_s_at) / Fold change /veh PLEKHG5 (11737974_s_at) / RFU LRRC4B (11730491_at) / Fold change /veh LRRC4B (11730491_at) / RFU GIMAP4 (11747438_a_at) / Fold change /veh GIMAP4 (11747438_a_at) / RFU KRT8 (11758183_x_at) / Fold change /veh KRT8 (11758183_x_at) / RFU CNN1 (11734310_a_at) / Fold change /veh CNN1 (11734310_a_at) / RFU VPS37D (11726825_at) / Fold change /veh VPS37D (11726825_at) / RFU C10orf10 (11716522_x_at) / Fold change /veh C10orf10 (11716522_x_at) / RFU KIR2DL2 /// KIR2DL4 /// KIR2DL5A /// KIR2DL5B /// KIR2DS1 /// KIR2DS2 /// KIR2DS3 /// KIR2DS4 /// KIR3DL3 /// KIR3DL3 /// KIR3DS1 (11738374_at) / Fold change /veh KIR2DL2 /// KIR2DL4 /// KIR2DL5A /// KIR2DL5B /// KIR2DS1 /// KIR2DS2 /// KIR2DS3 /// KIR2DS4 /// KIR3DL3 /// KIR3DL3 /// KIR3DS1 (11738374_at) / RFU C1QL1 (11718748_at) / Fold change /veh C1QL1 (11718748_at) / RFU TMPRSS4 (11747572_a_at) / Fold change /veh TMPRSS4 (11747572_a_at) / RFU HAMP (11756126_x_at) / Fold change /veh HAMP (11756126_x_at) / RFU RNFT2 (11725882_a_at) / Fold change /veh RNFT2 (11725882_a_at) / RFU NR4A2 (11747474_a_at) / Fold change /veh NR4A2 (11747474_a_at) / RFU ABCC12 (11746883_a_at) / Fold change /veh ABCC12 (11746883_a_at) / RFU TMEM136 (11760407_x_at) / Fold change /veh TMEM136 (11760407_x_at) / RFU CLDN22 /// WWC2 (11732394_at) / Fold change /veh CLDN22 /// WWC2 (11732394_at) / RFU HLA-DPB1 (11760878_x_at) / Fold change /veh HLA-DPB1 (11760878_x_at) / RFU SPINT1 (11716480_a_at) / Fold change /veh SPINT1 (11716480_a_at) / RFU GAP43 (11754022_s_at) / Fold change /veh GAP43 (11754022_s_at) / RFU A4GNT (11735810_at) / Fold change /veh A4GNT (11735810_at) / RFU PRB3 (11715151_x_at) / Fold change /veh PRB3 (11715151_x_at) / RFU TUBB4B (11761932_at) / Fold change /veh TUBB4B (11761932_at) / RFU CAPN14 (11732068_a_at) / Fold change /veh CAPN14 (11732068_a_at) / RFU TMCC2 (11721928_a_at) / Fold change /veh TMCC2 (11721928_a_at) / RFU IRGQ (11745062_a_at) / Fold change /veh IRGQ (11745062_a_at) / RFU FAM174B (11720279_a_at) / Fold change /veh FAM174B (11720279_a_at) / RFU TMPRSS4 (11748680_a_at) / Fold change /veh TMPRSS4 (11748680_a_at) / RFU FAM212B (11763350_a_at) / Fold change /veh FAM212B (11763350_a_at) / RFU PLEKHG5 (11743358_a_at) / Fold change /veh PLEKHG5 (11743358_a_at) / RFU ZSCAN30 (11745921_a_at) / Fold change /veh ZSCAN30 (11745921_a_at) / RFU CMKLR1 (11741424_a_at) / Fold change /veh CMKLR1 (11741424_a_at) / RFU LOC101060620 /// MAPK8IP1 (11723275_at) / Fold change /veh LOC101060620 /// MAPK8IP1 (11723275_at) / RFU SPTSSB (11747773_x_at) / Fold change /veh SPTSSB (11747773_x_at) / RFU PRSS12 (11739890_at) / Fold change /veh PRSS12 (11739890_at) / RFU BIN1 (11741810_x_at) / Fold change /veh BIN1 (11741810_x_at) / RFU WNT11 (11732464_a_at) / Fold change /veh WNT11 (11732464_a_at) / RFU C10orf10 (11716521_a_at) / Fold change /veh C10orf10 (11716521_a_at) / RFU C5orf56 (11738089_at) / Fold change /veh C5orf56 (11738089_at) / RFU CYB561 (11721691_x_at) / Fold change /veh CYB561 (11721691_x_at) / RFU ANKRD19P (11752326_a_at) / Fold change /veh ANKRD19P (11752326_a_at) / RFU OR2T12 /// OR2T33 /// OR2T8 (11738714_s_at) / Fold change /veh OR2T12 /// OR2T33 /// OR2T8 (11738714_s_at) / RFU VCAN (11748164_a_at) / Fold change /veh VCAN (11748164_a_at) / RFU JSRP1 (11732532_at) / Fold change /veh JSRP1 (11732532_at) / RFU KRTAP10-11 (11738290_x_at) / Fold change /veh KRTAP10-11 (11738290_x_at) / RFU MYO3A (11730013_a_at) / Fold change /veh MYO3A (11730013_a_at) / RFU EBF3 (11725865_a_at) / Fold change /veh EBF3 (11725865_a_at) / RFU CAMK2N1 (11719241_x_at) / Fold change /veh CAMK2N1 (11719241_x_at) / RFU C5orf56 (11738088_a_at) / Fold change /veh C5orf56 (11738088_a_at) / RFU OLFML3 (11715873_a_at) / Fold change /veh OLFML3 (11715873_a_at) / RFU LOC100653217 /// NTM (11731650_a_at) / Fold change /veh LOC100653217 /// NTM (11731650_a_at) / RFU MAPK11 (11762145_a_at) / Fold change /veh MAPK11 (11762145_a_at) / RFU FIZ1 (11724087_x_at) / Fold change /veh FIZ1 (11724087_x_at) / RFU OASL (11726364_x_at) / Fold change /veh OASL (11726364_x_at) / RFU SOX15 (11748057_x_at) / Fold change /veh SOX15 (11748057_x_at) / RFU CD79A (11719716_a_at) / Fold change /veh CD79A (11719716_a_at) / RFU HIST1H1D (11736915_at) / Fold change /veh HIST1H1D (11736915_at) / RFU CASKIN2 (11723855_a_at) / Fold change /veh CASKIN2 (11723855_a_at) / RFU LOC730098 (11760151_x_at) / Fold change /veh LOC730098 (11760151_x_at) / RFU OR4N2 (11742367_at) / Fold change /veh OR4N2 (11742367_at) / RFU PRRT2 (11749266_a_at) / Fold change /veh PRRT2 (11749266_a_at) / RFU SNX32 (11753110_a_at) / Fold change /veh SNX32 (11753110_a_at) / RFU CDHR5 (11726645_a_at) / Fold change /veh CDHR5 (11726645_a_at) / RFU RCAN1 (11760418_a_at) / Fold change /veh RCAN1 (11760418_a_at) / RFU FAM167A (11723789_a_at) / Fold change /veh FAM167A (11723789_a_at) / RFU FAM26E (11764081_at) / Fold change /veh FAM26E (11764081_at) / RFU ISYNA1 (11749810_s_at) / Fold change /veh ISYNA1 (11749810_s_at) / RFU ACY1 (11761880_at) / Fold change /veh ACY1 (11761880_at) / RFU 11764098_at / Fold change /veh 11764098_at / RFU SAMD14 (11745864_x_at) / Fold change /veh SAMD14 (11745864_x_at) / RFU NPB (11741838_a_at) / Fold change /veh NPB (11741838_a_at) / RFU TMPRSS6 (11731388_a_at) / Fold change /veh TMPRSS6 (11731388_a_at) / RFU KRTAP10-2 (11738614_at) / Fold change /veh KRTAP10-2 (11738614_at) / RFU ARHGAP8 /// PRR5-ARHGAP8 (11727945_x_at) / Fold change /veh ARHGAP8 /// PRR5-ARHGAP8 (11727945_x_at) / RFU KRTAP5-7 /// NADSYN1 (11734609_at) / Fold change /veh KRTAP5-7 /// NADSYN1 (11734609_at) / RFU RASL12 (11751679_a_at) / Fold change /veh RASL12 (11751679_a_at) / RFU CDKN2B (11736163_a_at) / Fold change /veh CDKN2B (11736163_a_at) / RFU PRF1 (11729649_at) / Fold change /veh PRF1 (11729649_at) / RFU, ZNF638 /// ZNF638-IT1 / Fold change vs veh, ZNF638 /// ZNF638-IT1 / RFU, PANK3 / Fold change vs veh, PANK3 / RFU, SH3YL1 / Fold change vs veh, SH3YL1 / RFU, ZEB2 / Fold change vs veh, ZEB2 / RFU, NRIP1 / Fold change vs veh, NRIP1 / RFU, PTTG1IP / Fold change vs veh, PTTG1IP / RFU, CAPN2 / Fold change vs veh, CAPN2 / RFU, MED14 / Fold change vs veh, MED14 / RFU, SNORA58 / Fold change vs veh, SNORA58 / RFU, C1orf63 / Fold change vs veh, C1orf63 / RFU, LRRFIP1 / Fold change vs veh, LRRFIP1 / RFU, NDUFAF7 / Fold change vs veh, NDUFAF7 / RFU, SLC12A2 / Fold change vs veh, SLC12A2 / RFU, IBTK / Fold change vs veh, IBTK / RFU, ESF1 / Fold change vs veh, ESF1 / Fold change vs veh, TMEM50B / RFU, TAOK1 / Fold change vs veh, TAOK1 / RFU, ACBD3 / Fold change vs veh, ACBD3 / RFU, TMA16 / Fold change vs veh, TMA16 / RFU, RWDD3 / Fold change vs veh, RWDD3 / RFU, BCAT1 / Fold change vs veh, BCAT1 / RFU, EDEM3 / Fold change vs veh, EDEM3 / RFU, TMEM33 / Fold change vs veh, TMEM33 / RFU, WDR75 / Fold change vs veh, WDR75 / RFU, AHCTF1 / Fold change vs veh, AHCTF1 / RFU, TFRC / Fold change vs veh, TFRC / RFU, ZDHHC17 / Fold change vs veh, ZDHHC17 / RFU, NOM1 / Fold change vs veh, NOM1 / RFU, ARL8B / Fold change vs veh, ARL8B / RFU, ZBTB11 / Fold change vs veh, ZBTB11 / RFU, TAMM41 / Fold change vs veh, TAMM41 / RFU, KIAA1704 /// LOC100996395 / Fold change vs veh, KIAA1704 /// LOC100996395 / RFU, ING1 / Fold change vs veh, ING1 / RFU, TRMT61B / Fold change vs veh, TRMT61B / RFU, FUBP3 / Fold change vs veh, FUBP3 / RFU, TP53 / Fold change vs veh, TP53 / RFU, TNKS2 / Fold change vs veh, TNKS2 / RFU, ZFP14 / Fold change vs veh, ZFP14 / RFU, ACTR2 / Fold change vs veh, ACTR2 / RFU, PPP3R1 / Fold change vs veh, PPP3R1 / RFU, PIK3R1 / Fold change vs veh, PIK3R1 / RFU, HNRNPA1 / Fold change vs veh, HNRNPA1 / RFU, RNF170 / Fold change vs veh, RNF170 / RFU, ZNF28 / Fold change vs veh, ZNF28 / RFU, RNGTT / Fold change vs veh, RNGTT / RFU, OGT / Fold change vs veh, OGT / RFU, BRD1 / Fold change vs veh, BRD1 / RFU, MARS / Fold change vs veh, MARS / RFU, ZNF655 / Fold change vs veh, ZNF655 / RFU, FAHD1 / Fold change vs veh, FAHD1 / RFU, BDP1 / Fold change vs veh, BDP1 / RFU, LRRCC1 / Fold change vs veh, LRRCC1 / RFU, ARID1A / Fold change vs veh, ARID1A / RFU, ZNF146 / Fold change vs veh, ZNF146 / RFU, ZNF330 / Fold change vs veh, ZNF330 / RFU, GPN3 / Fold change vs veh, GPN3 / RFU, C9orf123 / Fold change vs veh, C9orf123 / RFU, N4BP2L2 / Fold change vs veh, N4BP2L2 / RFU, ARFIP1 / Fold change vs veh, ARFIP1 / RFU, FAM179B / Fold change vs veh, FAM179B / RFU, BCL10 / Fold change vs veh, BCL10 / RFU, UHRF1BP1L / Fold change vs veh, UHRF1BP1L / RFU, BET1 / Fold change vs veh, BET1 / RFU, CNOT2 / Fold change vs veh, CNOT2 / RFU, ZNF268 / Fold change vs veh, ZNF268 / Fold change vs veh, ZNF507 / RFU, DGCR2 / Fold change vs veh, DGCR2 / RFU, WDSUB1 / Fold change vs veh, WDSUB1 / Fold change vs veh, HSP90B1 /// MIR3652 / RFU, ADSS / Fold change vs veh, ADSS / RFU, GK / Fold change vs veh, GK / RFU, ZNF148 / Fold change vs veh, ZNF148 / RFU, TAF9 / Fold change vs veh, TAF9 / RFU, SLC1A5 / Fold change vs veh, SLC1A5 / RFU, SLMO2 / Fold change vs veh, SLMO2 / RFU, ABCC4 / Fold change vs veh, ABCC4 / RFU, LOC101060439 /// RAP1B / Fold change vs veh, LOC101060439 /// RAP1B / RFU, RFX7 / Fold change vs veh, RFX7 / RFU, GTPBP10 / Fold change vs veh, GTPBP10 / RFU, CNEP1R1 / Fold change vs veh, CNEP1R1 / RFU, BIVM-ERCC5 /// ERCC5 / Fold change vs veh, BIVM-ERCC5 /// ERCC5 / RFU, ILF3 / Fold change vs veh, ILF3 / RFU 11762660_at / Fold change /veh 11762660_at / RFU VCAN (11757783_s_at) / Fold change /veh VCAN (11757783_s_at) / RFU DDX43 (11728927_at) / Fold change /veh DDX43 (11728927_at) / RFU KRT8 (11758188_x_at) / Fold change /veh KRT8 (11758188_x_at) / RFU NKD1 (11759106_at) / Fold change /veh NKD1 (11759106_at) / RFU SRD5A1 (11742802_a_at) / Fold change /veh SRD5A1 (11742802_a_at) / RFU TPSAB1 /// TPSB2 (11721975_s_at) / Fold change /veh TPSAB1 /// TPSB2 (11721975_s_at) / RFU GSTM3 (11746129_a_at) / Fold change /veh GSTM3 (11746129_a_at) / RFU IL23R (11737362_x_at) / Fold change /veh IL23R (11737362_x_at) / RFU TMEM51 (11727254_a_at) / Fold change /veh TMEM51 (11727254_a_at) / RFU PIWIL2 (11732686_x_at) / Fold change /veh PIWIL2 (11732686_x_at) / RFU ORM1 (11744905_x_at) / Fold change /veh ORM1 (11744905_x_at) / RFU CCDC152 (11743942_at) / Fold change /veh CCDC152 (11743942_at) / RFU ECM1 (11717891_a_at) / Fold change /veh ECM1 (11717891_a_at) / RFU IL23R (11748794_a_at) / Fold change /veh IL23R (11748794_a_at) / RFU TNFAIP8L3 (11732012_x_at) / Fold change /veh TNFAIP8L3 (11732012_x_at) / RFU MBOAT4 (11741988_at) / Fold change /veh MBOAT4 (11741988_at) / RFU 11764193_at / Fold change /veh 11764193_at / RFU TMEM53 (11763286_at) / Fold change /veh TMEM53 (11763286_at) / RFU MAGEB2 (11727129_at) / Fold change /veh MAGEB2 (11727129_at) / RFU TMEM200A (11744735_a_at) / Fold change /veh TMEM200A (11744735_a_at) / RFU CCDC152 (11751479_a_at) / Fold change /veh CCDC152 (11751479_a_at) / RFU FAM211A (11726209_a_at) / Fold change /veh FAM211A (11726209_a_at) / RFU RGS16 (11746705_a_at) / Fold change /veh RGS16 (11746705_a_at) / RFU VCAN (11755009_s_at) / Fold change /veh VCAN (11755009_s_at) / RFU RHOB (11743442_s_at) / Fold change /veh RHOB (11743442_s_at) / RFU RGS16 (11720943_a_at) / Fold change /veh RGS16 (11720943_a_at) / RFU RGS16 (11720944_at) / Fold change /veh RGS16 (11720944_at) / RFU, VPS4B / Fold change vs veh, VPS4B / RFU, CREB1 / Fold change vs veh, CREB1 / RFU, DNAJC13 / Fold change vs veh, DNAJC13 / RFU, GNAQ / Fold change vs veh, GNAQ / RFU, CDK5R1 / Fold change vs veh, CDK5R1 / RFU, ZRANB3 / Fold change vs veh, ZRANB3 / RFU, CUL4A / Fold change vs veh, CUL4A / RFU, CCNY / Fold change vs veh, CCNY / RFU, UFL1 / Fold change vs veh, UFL1 / RFU, COG3 / Fold change vs veh, COG3 / RFU, DIAPH2 / Fold change vs veh, DIAPH2 / RFU, SKA2 / Fold change vs veh, SKA2 / RFU, AFF3 / Fold change vs veh, AFF3 / RFU, LMF1 / Fold change vs veh, LMF1 / RFU, IPO11 / Fold change vs veh, IPO11 / RFU, DFFB / Fold change vs veh, DFFB / RFU, FOXP1 / Fold change vs veh, FOXP1 / RFU, CARD8 / Fold change vs veh, CARD8 / RFU, STRN3 / Fold change vs veh, STRN3 / RFU, ADK / Fold change vs veh, ADK / RFU, RASSF2 / Fold change vs veh, RASSF2 / RFU, WIPF1 / Fold change vs veh, WIPF1 / RFU, LARP1B / Fold change vs veh, LARP1B / RFU, RASA1 / Fold change vs veh, RASA1 / RFU, RB1 / Fold change vs veh, RB1 / RFU, PPFIA1 / Fold change vs veh, PPFIA1 / RFU, MAT2A / Fold change vs veh, MAT2A / RFU, CCT5 / Fold change vs veh, CCT5 / RFU, WDR92 / Fold change vs veh, WDR92 / RFU, CUX1 / Fold change vs veh, CUX1 / RFU, TTC7A / Fold change vs veh, TTC7A / RFU, TMEM135 / Fold change vs veh, TMEM135 / RFU, DEPTOR / Fold change vs veh, DEPTOR / RFU, CPM / Fold change vs veh, CPM / RFU, DNAJB6 / Fold change vs veh, DNAJB6 / RFU, CACNA2D3 / Fold change vs veh, CACNA2D3 / RFU, DTX4 / Fold change vs veh, DTX4 / RFU, TFCP2 / Fold change vs veh, TFCP2 / RFU, GMCL1 /// GMCL1P1 / Fold change vs veh, GMCL1 /// GMCL1P1 / RFU, AEBP2 / Fold change vs veh, AEBP2 / RFU, SNHG1 /// SNORD22 /// SNORD25 /// SNORD26 /// SNORD27 /// SNORD28 /// SNORD29 /// SNORD31 / Fold change vs veh, SNHG1 /// SNORD22 /// SNORD25 /// SNORD26 /// SNORD27 /// SNORD28 /// SNORD29 /// SNORD31 / Fold change (Aza/veh), C12orf56 (ProbeSet 11735607_a_at) / Fold change (ACY-1035/veh), C12orf56 (ProbeSet 11735607_a_at) / Fold change (Aza/veh), FGFR1OP (ProbeSet 11751329_s_at) / Fold change (ACY-1035/veh), FGFR1OP (ProbeSet 11751329_s_at) / Fold change (Aza/veh), VPS36 (ProbeSet 11739960_a_at) / Fold change (ACY-1035/veh), VPS36 (ProbeSet 11739960_a_at) / RFU SYPL1 (11715823_x_at) / Fold change /veh SYPL1 (11715823_x_at) / RFU IGFBP7 (11715501_s_at) / Fold change /veh IGFBP7 (11715501_s_at) / RFU REEP3 (11722064_at) / Fold change /veh REEP3 (11722064_at) / RFU IGLL1 (11728026_x_at) / Fold change /veh IGLL1 (11728026_x_at): dose or concentration left out as unconfirmed
Conditions: MV-4-11 cells, 48 hours

With `Nc1ccc(-c2cccs2)cc1NC(=O)c1ccc2c(c1)cc(C1CC1)n2CCN1CCOCC1` [ACY-1035] the “RFU ZSCAN30 (11745921_a_at)” value was 7.88 RFU.
